38 molecules from US7279491B2 (Janssen Pharmaceutica N.V., priority 2002, dated 2007) can be followed below.

T1 sequence (Q9Y5N1 whole entry): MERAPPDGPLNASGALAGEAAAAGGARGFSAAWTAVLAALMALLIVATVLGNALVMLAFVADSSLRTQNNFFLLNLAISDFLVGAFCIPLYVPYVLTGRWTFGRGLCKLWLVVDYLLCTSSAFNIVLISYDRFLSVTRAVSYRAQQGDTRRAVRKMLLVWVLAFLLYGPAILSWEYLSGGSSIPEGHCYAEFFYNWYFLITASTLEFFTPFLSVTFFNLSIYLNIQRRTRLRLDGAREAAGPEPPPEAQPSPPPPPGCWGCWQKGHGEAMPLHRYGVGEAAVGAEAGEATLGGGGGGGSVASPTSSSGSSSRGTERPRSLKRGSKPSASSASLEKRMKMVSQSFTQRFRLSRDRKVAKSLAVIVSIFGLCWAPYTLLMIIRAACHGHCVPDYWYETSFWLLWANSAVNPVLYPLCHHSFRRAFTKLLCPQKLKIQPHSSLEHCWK

This test addresses T1, human histamine H3 receptor (Homo sapiens, UniProt Q9Y5N1).
T1 construct: One microgram of supercoiled H3 receptor cDNA was added to the cells and mixed; expressed in transfected cells; membranes
Kind of test: {3H}-N-methylhistamine binding to membranes of histamine H3 receptor-expressing SK-N-MC cells. Conditions: 0.8 nM {3H}-N-methylhistamine, 45 min at 25° C., Ki=(IC50)/(1+({L}/(Kd)), Kd 800 pM). How it is done: Transfection of Cells with Human Histamine Receptor
A 10 cm tissue culture dish with a confluent monolayer of SK-N-MC cells was split two days prior to transfection. Using sterile technique the media was removed and the cells were detached from the dish by the addition of trypsin. One fifth of the cells were then placed onto a new 10 cm dish. Cells were grown in a 37° C. incubator with 5% CO2 in Minimal Essential Media Eagle with 10% Fetal Bovine Serum. After two days cells were approximately 80% confluent. These were removed from the dish with trypsin and pelleted in a clinical centrifuge. The pellet was then re-suspended in 400 μL complete media and transferred to an electroporation cuvette with a 0.4 cm gap between the electrodes. One microgram of supercoiled H3 receptor cDNA was added to the cells and mixed. The voltage for the electroporation was set at 0.25 kV, the capacitance was set at 960 μF. After electroporation the cells were diluted into 10 mL complete media and plated onto four 10 cm dishes. Because of the variability in the efficiency of electroporation, four different concentrations of cells were plated. The ratios used were; 1:20, 1:10, 1:5, with the remainder of the cells being added to the fourth dish. The cells were allowed to recover for 24 h before adding the selection media (complete media with 600 μg/mL G418). After 10 days dishes were analyzed for surviving colonies of cells. Dishes with well-isolated colonies were used. Cells from individual colonies were isolated and tested. SK-N-MC cells were used because they give efficient coupling for inhibition of adenylate cyclase. The clones that gave the most robust inhibition of adenylate cyclase in response to histamine were used for further study.
{^3H}-N-methylhistamine Binding
Cell pellets from histamine H3 receptor-expressing SK-N-MC cells were homogenized in 20 mM Tris HCl/0.5 mM EDTA. Supernatants from an 800 g spin were collected, recentrifuged at 30,000 g for 30 min. Pellets were re-homogenized in 50 mM Tris/5 mM EDTA (pH 7.4). Membranes were incubated with 0.8 nM {^3H}-N-methylhistamine plus/minus test compounds for 45 min at 25° C. and harvested by rapid filtration over GF/C glass fiber filters (pretreated with 0.3% polyethylenimine) followed by four washes with ice-cold buffer. Filters were dried, added to 4 mL scintillation cocktail and then counted on a liquid scintillation counter. Non-specific binding was defined with 10 μM histamine. The pKi values were calculated based on a Kd of 800 pM and a ligand concentration ({L}) of 800 pM according to the formula: Ki=(IC50)/(1+({L}/(Kd))
One may read the Ki as a dissociation constant, usually derived from enzyme kinetics or from competition with a known ligand. Low readings indicate higher affinity, high ones lower affinity. The molecule `c1ccc(N2CCC(CN3CCCCC3)CC2)c(CN2CCOCC2)c1` [Example 22, 4-{2-(4-piperidin-1-ylmethyl-piperidin-1-yl)-benzyl}-morpholine] displayed a Ki of 4500 nM.

Molecule `c1cc(N2CCC(CNC3CCCCC3)CC2)ccc1CN1CCCC1` [Example 23, Cyclohexyl-{1-(4-pyrrolidin-1-ylmethyl-phenyl)-piperidin-4-ylmethyl}-amine] had a Ki of 0.9 nM.

Take `c1cc(N2CCC(CN3CCCCCCCCCCCC3)CC2)ccc1CN1CCCC1` [Example 24, 1-{1-(4-Pyrrolidin-1-ylmethyl-phenyl)-piperidin-4-ylmethyl}-azacyclotridecane]: the Ki turned out to be 23 nM.

`CCN(CC)CC1CCN(c2ccc(CN3CCCC3)cc2)CC1` [Example 25, Diethyl-{1-(4-pyrrolidin-1-ylmethyl-phenyl)-piperidin-4-ylmethyl}-amine] registered a Ki of 0.8 nM.

For the molecule `CN(C)CC1CCN(c2ccc(CN3CCCC3)cc2)CC1` [Example 26, Dimethyl-{1-(4-pyrrolidin-1-ylmethyl-phenyl)-piperidin-4-ylmethyl}-amine], the affinity corresponds to a Ki of 1.7 nM.

In turn, `CN1CCN(CC2CCN(c3ccc(CN4CCCC4)cc3)CC2)CC1` [Example 27, 1-Methyl-4-{1-(4-pyrrolidin-1-ylmethyl-phenyl)-piperidin-4-ylmethyl}-piperazine] came in with a Ki of 1.4 nM.

Molecule `OC1CCN(CC2CCN(c3ccc(CN4CCCC4)cc3)CC2)CC1` [Example 28, 1-{1-(4-Pyrrolidin-1-ylmethyl-phenyl)-piperidin-4-ylmethyl}-piperidin-4-ol] displayed a Ki of 0.8 nM.

Molecule `c1cc(N2CCC(CN3CCSCC3)CC2)ccc1CN1CCCC1` [Example 29, 4-{1-(4-Pyrrolidin-1-ylmethyl-phenyl)-piperidin-4-ylmethyl}-thiomorpholine] displayed a Ki of 2 nM.

Consider `c1cc(N2CCC(CN3CCCCC3)CC2)ccc1CN1CCCC1` [Example 30, 1-{1-(4-Pyrrolidin-1-ylmethyl-phenyl)-piperidin-4-ylmethyl}-piperidine], for which the Ki turned out to be 1 nM.

Molecule `c1cc(N2CCC(CN3CCOCC3)CC2)ccc1CN1CCCC1` [Example 31, 4-{1-(4-Pyrrolidin-1-ylmethyl-phenyl)-pieridin-4-ylmethyl}-morpholine] gave a Ki of 2 nM.

Molecule `c1cc(CN2CCSCC2)cc(N2CCC(CN3CCCC3)CC2)c1` [Example 32, 4-{3-(4-Pyrrolidin-1-ylmethyl-piperidin-1-yl)-benzyl}-thiomorpholine] came in with a Ki of 9 nM.

In turn, `c1cc(CN2CCOCC2)cc(N2CCC(CN3CCCC3)CC2)c1` [Example 33, 4-{3-(4-Pyrrolidin-1-ylmethyl-piperidin-1-yl)-benzyl}-morpholine] registered a Ki of 20 nM.

In turn, `c1cc(CN2CCCC2)cc(N2CCC(CN3CCCC3)CC2)c1` [Example 34, 4-Pyrrolidin-1-ylmethyl-1-(3-pyrrolidin-1-ylmethyl-phenyl)-piperidine] came in with a Ki of 6 nM.

`c1cc(CN2CCCCC2)cc(N2CCC(CN3CCCC3)CC2)c1` [Example 35, 1-{3-(4-pyrrolidin-1-ylmethyl-piperidin-1-yl)-benzyl}-piperidine] came in with a Ki of 10 nM.

`c1cc(N2CCC(CN3CCCC3)CC2)ccc1CN1CCCCCCCCCCCC1` [Example 36, 1-{4-(4-Pyrrolidin-1-ylmethyl-piperidin-1-yl)-benzyl}-azacyclotridecane] displayed a Ki of 6 nM.

`c1cc(N2CCC(CN3CCCC3)CC2)ccc1CNC1CCCCC1` [Example 37, Cyclohexyl-{4-(4-pyrrolidin-1-ylmethyl-piperidin-1-yl)-benzyl}-amine] displayed a Ki of 2 nM.

For the molecule `OC1CCN(Cc2ccc(N3CCC(CN4CCCC4)CC3)cc2)CC1` [Example 38, 1-{4-(4-Pyrrolidin-1-ylmethyl-piperidin-1-yl)-benzyl}-piperidin-4-ol], the Ki is 5 nM.

The molecule `CN1CCN(Cc2ccc(N3CCC(CN4CCCC4)CC3)cc2)CC1` [Example 39, 1-Methyl-4-{4-(4-pyrrolidin-1-ylmethyl-piperidin-1-yl)-benzyl}-piperazine] had a Ki of 6 nM.

With `c1cc(N2CCC(CN3CCCC3)CC2)ccc1CN1CCSCC1` [Example 40, 4-{4-(4-Pyrrolidin-1-ylmethyl-piperidin-1-yl)-benzyl}-thiomorpholine], the Ki is 4 nM.

With `c1cc(N2CCC(CN3CCCC3)CC2)ccc1CN1CCOCC1` [Example 41, 4-{4-(4-Pyrrolidin-1-ylmethyl-piperidin-1-yl)-benzyl}-morpholine], affinity was put at a Ki of 12 nM.

For `CN(C)Cc1ccc(N2CCC(CN3CCCC3)CC2)cc1` [Example 42, Dimethyl-{4-(4-pyrrolidin-1-ylmethyl-piperidin-1-yl)-benzyl}-amine], the Ki was found to be 5 nM.

Consider `c1ccc(N2CCC(CN3CCCC3)CC2)c(CN2CCOCC2)c1` [Example 43, 4-{2-(4-Pyrrolidin-1-ylmethyl-piperidin-1-yl)-benzyl}-morpholine], for which the Ki was determined as 4800 nM.

As to `c1cc(N2CCC(CN3CCOCC3)CC2)ccc1CN1CCCCC1` [Example 44, 4-{1-(4-Piperidin-1-ylmethyl-phenyl)-piperidin-4-ylmethyl}-morpholine], the Ki amounted to 5 nM.

Regarding `c1cc(N2CCC(CN3CCCC3)CC2)ccc1CN1CCCCC1` [Example 45, 1-{4-(4-Pyrrolidin-1-ylmethyl-piperidin-1-yl)-benzyl}-piperidine], the inhibition constant Ki was determined as 2 nM.

As for `c1cc(N2CCC(NC3CCCCC3)CC2)ccc1CN1CCOCC1` [Example 46, Cyclohexyl-{1-(4-morpholin-4-ylmethyl-phenyl)-piperidin-4-yl}-amine], the inhibitory constant (Ki) is 28 nM.

`CN(C1CCCCC1)C1CCN(c2ccc(CN3CCOCC3)cc2)CC1` [Example 47, Cyclohexyl-methyl-{1-(4-morpholin-4-ylmethyl-phenyl)-piperidin-4-yl}-amine] showed a Ki of 5.8 nM.

In turn, `CN1CCN(C2CCN(c3ccc(CN4CCOCC4)cc3)CC2)CC1` [Example 48, 4-{4-{4-(4-Methyl-piperazin-1-yl)-piperidin-1-yl}-benzyl}-morpholine] had a Ki of 1000 nM.

`CCN(C)C1CCN(c2ccc(CN3CCOCC3)cc2)CC1` [Example 49, Ethyl-methyl-{1-(4-morpholin-4-ylmethyl-phenyl)-piperidin-4-yl}-amine] registered a Ki of 14 nM.

`c1cc(N2CCC(N3CCOCC3)CC2)ccc1CN1CCOCC1` [Example 50, 4-{1-(4-Morpholin-4-ylmethyl-phenyl)-piperidin-4-yl}-morpholine] gave a Ki of 272 nM.

The molecule `c1cc(N2CCC(N3CCCC3)CC2)ccc1CN1CCOCC1` [Example 51, 4-{4-(4-Pyrrolidin-1-yl-pieridin-1-yl)-benzyl}-morpholine] yielded a Ki of 17 nM.

With `c1cc(N2CCC(N3CCCCC3)CC2)ccc1CN1CCOCC1` [Example 52, 1′-(4-Morpholin-4-ylmethyl-phenyl)-{1,4′}bipiperidinyl], the Ki is 5.5 nM.

In the case of `c1cc(N2CCC(N3CCCCC3)CC2)ccc1CN1CCCCC1` [Example 53, 1′-(4-Piperidin-1-ylmethyl-phenyl)-{1,4′}bipiperidinyl], the affinity corresponds to a Ki of 2.7 nM.

As for `c1ccc(NCc2ccc(N3CCC(N4CCCCC4)CC3)cc2)nc1` [Example 54, (4-{1,4′}Bipiperidinyl-1′-yl-benzyl)-pyridin-2-yl-amine], affinity was put at a Ki of 8.4 nM.

Consider `c1ccc(NCC2CCN(c3ccc(CN4CCCC4)cc3)CC2)cc1` [Example 55, Phenyl-{1-(4-pyrrolidin-1-ylmethyl-phenyl)-piperidin-4-ylmethyl}-amine], for which the affinity, expressed as Ki, was 8 nM.

Regarding `c1ccc(NCC2CCN(c3ccc(CN4CCCC4)cc3)CC2)nc1` [Example 56, Pyridin-2-yl-{1-(4-pyrrolidin-1-ylmethyl-phenyl)-piperidin-4-ylmethyl}-amine], the Ki amounted to 3 nM.

The molecule `c1cc(N2CCC(CN3CCCCC3)CC2)ccc1CN1CCCCC1` [Example 57, 1-{1-(4-Piperidin-1-ylmethyl-phenyl)-piperidin-4-ylmethyl}-piperidine] registered a Ki of 2.5 nM.

In turn, `c1cc(N2CCC(CN3CCCC3)CC2)ccc1CN1CCCC1` [Example 58, 4-Pyrrolidin-1-ylmethyl-1-(4-pyrrolidin-1-ylmethyl-phenyl)-piperidine] returned a Ki of 0.6 nM.

`Fc1ccc(NCc2ccc(N3CCC(CN4CCCC4)CC3)cc2)cc1` [Example 59, (4-Fluoro-phenyl)-{4-(4-pyrrolidin-1-ylmethyl-piperidin-1-yl)-benzyl}-amine]: the Ki was found to be 48 nM.
